This is an account of results in patent publication US20100022637A1, “IDENTIFICATION OF ANTI-CANCER COMPOUNDS AND COMPOUNDS FOR TREATING HUNTINGTON'S DISEASE AND METHODS OF TREATMENT THEREOF” (THE TRUSTEES OF COLUMBIA UNIVERSITY IN THE CITY OF NEW YORK, priority 2005, published 2010).

One series has as its system N548 mutant cells. In words: cells. The following applies: for Activity: scale not defined; for maximal fold induction: read-out: N548 Mut: Max, maximum rescue expressed as fold over DMSO treated N548 mutant cells; for selectivity profile of cell death rescue in panel of htt expressing cell lines: N63, N548, FL htt cell lines, in words. The protocol:
Embryonic rat striatal neurons were conditionally immortalized by stably transfecting a temperature-sensitive SV40 large T-antigen (T-ag) to generate the ST14A cell line. ST14A cells proliferate at the permissive temperature (33° C.), but stop dividing at 39° C., as a result of T-ag degradation. […] As htt protein context modulates polyQ toxicity, testing these different length htt proteins could provide insight into the basis for context dependence.
ST14A Assay System: Calcein acetoxylmethyl ester (AM) (Molecular Probes, Eugene, Oreg.) is a non-fluorescent, membrane-permeable compound that is cleaved by intracellular esterases, which subsequently forms the anionic, fluorescent compound, calcein, that cannot permeate the cell membrane. […] A fluorescence viability assay, that is based on conversion of a non-fluorescent substrate (calcein AM) to a fluorescent product by nonspecific esterases in live cells, was employed to monitor cell death in wild type (wt) ST14A-Htt and mut ST14A-Htt cell lines. Cell death is indicated by a decrease in fluorescence. […] 3 μl of each compound was transferred from daughter plates to triplicate assay plates for a final assay concentration of 4 μg/ml in 0.1% DMSO (10 μM for NINDS compounds). Cells were incubated at 33° C. for 3 h to enhance attachment and then shifted to 39° C. (with 5% CO2). After 3 days (d), cells were washed 10 times with phosphate buffered saline (PBS) leaving 20 μl residual PBS per well, and 20 μl of 2 μg/ml calcein AM (Molecular probes) in PBS was added per well. […] The fluorescence intensity in each well was normalized to the median of each plate. The median normalized fluorescence of each triplicate assay wells was determined. A well with more than 50% increase in intensity above the median signal intensity was considered a “hit.”
Assay Development: An assay was developed for detecting mutant htt-induced cell death in ST14A cells in a 384-well plate format. A calcein AM-based method was used to detect cell viability, and optimized the cell number and time course for this method. […] A cell number titration was performed to determine the cell density at which calcein fluorescence was not saturated and the coefficient of variation (CV) was low (FIG. 14A-B). A low CV is critical for a high-throughput assay as it decreases noise and enhances sensitivity. […] Next, the kinetics of the fluorescence signal were determined.
Next, the serum concentrations that induce cell death in these cells were determined. Cells were seeded in decreasing serum (IFS) concentrations (5 to 0%), and cell viability was assayed after 3 d using the calcein AM assay (FIG. 14E).
A Z′ value of greater than 0 is required for a usable assay, with a maximum value of 1.0 for an ideal assay. For the assay, calcein fluorescence was used on the day of seeding to represent 100% rescue. The difference in calcein fluorescence signal on the day of seeding and after different number of days under serum deprivation was determined and used to calculate the Z′ factor. […] About 47,000 compounds were assayed in a 384-well plate format in triplicate to enhance the reliability of the primary screen.

A short description of series [1]: Rescue and toxicity of Compound 164 and analogs (Table 4).
Where [2] appears, read: nonselective hits (rescue also parental ST14A), 0.5% IFS, 39° C., 3 d.
The mark [3] stands for this setting: Rattus norvegicus, read-out: EC50 based on activity in N548 mutant cells.
Setting [4] is: read-out: EC50 based on activity in N548 mutant cells.

As usually defined, the EC50 is the concentration at which the effect is half-maximal. `CCCC1O[C@@H]2C[C@H]3[C@@H]4CCC5=CC(=O)C=C[C@]5(C)[C@H]4[C@@H](O)C[C@]3(C)[C@]2(C(=O)CO)O1` (stereo partly drawn) [Budesonide, reference compound]: the EC50 in the series on N548 mutant cells (Rattus norvegicus, ST14A, 72 h) was 500 nM. This molecule had an Activity in the series with N548 mutant cells (nonselective hits) of 2.
On the same counts, the results for `CCOC(=O)C(C)(C)Oc1ccc(Cl)cc1` [Clofibrate, reference compound] are 1000 nM and 2.
With `O=C(O)c1cc([N+](=O)[O-])ccc1NCCCc1ccccc1` [Compound 2-NPPB, reference compound], in the series with N548 mutant cells (setting [2]), the EC50 is 10000 nM. In the series with N548 mutant cells (nonselective hits), this molecule returned an Activity of 1.5. In addition, the CC50 with N548 mutant cells (read-out: TC50, nonselective hits, maximum concentration tested 80 μM) was 40000 nM.
For `CC[C@@]1(C)CC(CCN(Cc2ccco2)C(C)=O)(c2ccccc2)CCO1` (stereo partly drawn) [Compound 164-1], a half-maximal response in series [1] (EC50) required 2000 nM. Moreover, the TC50 in series [1] (Table 4, toxicity) was 8000 nM.
As for `COc1cc([C@@H]2c3cc4c(cc3[C@H](O)[C@H]3COC(=O)[C@H]23)OCO4)cc(OC)c1OC` [Podophyllotoxin, reference compound], the maximal fold induction in the series with N548 mutant cells (Rattus norvegicus, 72 h) was determined as 2.5. Moreover, the EC50 in the series on N548 mutant cells (setting [3]) came to 25 nM.
Regarding `CCCCC[C@H](O)/C=C/[C@H]1[C@H](O)CC(=O)[C@@H]1C/C=C\CCCC(=O)O` [Prostaglandin E2, reference compound], the EC50 in the series with N548 mutant cells (setting [2]) was 100 nM. The Activity with N548 mutant cells (nonselective hits) was 2.
In the case of `C[C@H](O)[C@H](O)[C@H]1CNc2nc(N)[nH]c(=O)c2N1` [Tetrahydrobiopterin, reference compound], in the series on N548 mutant cells (Rattus norvegicus, ST14A, 72 h), the concentration giving a half-maximal response (EC50) was 500 nM. Further, the Activity with N548 mutant cells (nonselective hits) is recorded as 2.5.
With `CC1=C(/C=C/C(C)=C/C=C/C(C)=C/C(=O)O)C(C)(C)CCC1` [Tretinoin, reference compound], a half-maximal effect in the series on N548 mutant cells (Rattus norvegicus, ST14A, 72 h) (EC50) was put at 600 nM. In addition, the Activity in the series with N548 mutant cells (nonselective hits) is 2.5.
Turning to `CC1OC(=O)C(C(C)C)NC(=O)C(C(C)C)OC(=O)C(C(C)C)NC(=O)C(C)OC(=O)C(C(C)C)NC(=O)C(C(C)C)OC(=O)C(C(C)C)NC(=O)C(C)OC(O)C(C(C)C)NC(=O)C(C(C)C)OC(=O)C(C(C)C)NC1=O` (stereo not drawn) [Valinomycin A, reference compound], the maximal fold induction in the series with N548 mutant cells (Rattus norvegicus, 72 h) stood at 2.5. The EC50 in the series with N548 mutant cells (setting [3]) was 150 nM.
As to `CC[C@]1(O)C[C@H]2CN(CCc3c([nH]c4ccccc34)[C@@](C(=O)OC)(c3cc4c(cc3OC)N(C=O)[C@H]3[C@@](O)(C(=O)OC)[C@H](OC(C)=O)[C@]5(CC)C=CCN6CC[C@]43[C@@H]65)C2)C1` [Vincristine, reference compound], the “N548 Mut: Max, maximum rescue expressed as fold over DMSO treated N548 mutant cells” value in the series on N548 mutant cells (0.5% IFS, 39° C., 3 d) is given as 2.5 fold. For the same molecule, the EC50 in the series on N548 mutant cells (setting [4]) was 40 nM.
`CCCOc1ccccc1-c1nc2nn[nH]c2c(=O)[nH]1` [Zaprinast, reference compound]: in the series with N548 mutant cells (Rattus norvegicus, ST14A, 72 h), the response was half-maximal at 5000 nM (EC50). Also, the Activity with N548 mutant cells (nonselective hits) was determined as 1.5.
Consider `CCCc1cc(OC(=O)C(CC)c2ccccc2)n(-c2cccc(F)c2)n1` (stereo not drawn) [revertin-1b], for which the “selectivity profile of cell death rescue in panel of htt expressing cell lines” value (from here on “selectivity profile of cell death rescue”) in the series on N548 mutant cells is given as “selectively rescued cell death in all mutant htt-expressing cell lines”. The maximal fold induction in the series with N548 mutant cells (Rattus norvegicus, 72 h) worked out at 25. In the series with N548 mutant cells (setting [3]), the EC50 worked out at 4 µg/mL.
`COc1ccccc1C(CCN(C(C)=O)C(C)c1ccccc1)C1CCC(C)(C)OC1` (stereo not drawn) [revertin-3]: in the series on N548 mutant cells (Rattus norvegicus, 72 h), the maximal fold induction is 4. In the series on N548 mutant cells (setting [3]), the EC50 turned out to be 2 µg/mL.
On the same counts, the results for `COc1cc(CC(=O)NC(C)C2C(=O)CC3C2C3(C)C)cc(OC)c1OC` (stereo not drawn) [revertin-4] are 1.5 and 4 µg/mL.
`CC1(C)C(C=C(Cl)Cl)C1C(=O)C1=C(O)CCCC1=O` (stereo not drawn) [revertin-6]: in the series with N548 mutant cells, the “selectivity profile of cell death rescue” value is on record as “N548 mutant selective”. Further, the maximal fold induction in the series on N548 mutant cells (Rattus norvegicus, 72 h) stood at 8. In the series with N548 mutant cells (setting [3]), the EC50 stood at 3 µg/mL.
Turning to `CCCCCCN(C(=O)CCCC)C(C)c1nc2ccccc2c(=O)n1-c1ccccc1OC` (stereo not drawn) [revertin-10], the “selectivity profile of cell death rescue” value in the series with N548 mutant cells was “N63 and N548 mutant selective”. The maximal fold induction with N548 mutant cells (Rattus norvegicus, 72 h) amounted to 1.5. Further, the EC50 with N548 mutant cells (setting [3]) was found to be 4 µg/mL.
As for `O=c1cccc2n1CC1CC2CN(C2=NC=NC3c4cc(Cl)ccc4NC23)C1` (stereo not drawn) [revertin-12], the maximal fold induction in the series with N548 mutant cells (Rattus norvegicus, 72 h) came to 1.5. For the same molecule, in the series with N548 mutant cells (setting [3]), the EC50 was 3 µg/mL.
On the same counts, the results for `O=[N+]([O-])c1cc(CN2CCN(CCO)CC2)ccc1Cl` [revertin-13] are 1.5 and 5 µg/mL.
As to `CCOC(=O)c1cccc(NS(O)(O)c2ccc(OC)cc2)c1` [revertin-14], in the series on N548 mutant cells, the “selectivity profile of cell death rescue” value was “N548 and FL-mutant selective”.
Regarding `O=c1[nH]c2c(c(=O)[nH]1)C(c1cccc([N+](=O)[O-])c1)C=C(c1ccccc1)O2` (stereo not drawn) [revertin-15], in the series with N548 mutant cells (Rattus norvegicus, 72 h), the maximal fold induction came to 3. The EC50 in the series on N548 mutant cells (setting [3]) came out at 1 µg/mL.
As to `CCCN1C(=O)C(=O)c2cc(C)ccc21` [revertin-16], the maximal fold induction with N548 mutant cells (Rattus norvegicus, 72 h) amounted to 2. The EC50 with N548 mutant cells (setting [3]) came to 1 µg/mL.
On the same counts, the results for `CC(C)CC(NC(=O)OCc1ccccc1)C(=O)Oc1ccc2c(=O)c(-c3ccc([N+](=O)O)cc3)coc2c1` (stereo not drawn) [revertin-17] are 1.5 and 4 µg/mL.
On the same counts, the results for `COc1ccc(C(CCN(CC2CCOC(C)(C)C2)C(C)=O)c2ccccc2)cc1` (stereo not drawn) [revertin-18] are 1.5 and 4 µg/mL.
The like results for `COc1cc2c3c(c1)C(C)CC(C)(C)N3C(=O)C2=O` (stereo not drawn) [revertin-19] were, in that order, 2 and 4 µg/mL.
Take `COc1ccc(CN(CCC2(c3ccccc3)CCOC(C)(C)C2)C(=O)c2ccco2)cc1OC` (stereo not drawn) [revertin-20]: in the series with N548 mutant cells (Rattus norvegicus, 72 h), the maximal fold induction stood at 2. The EC50 in the series with N548 mutant cells (setting [3]) turned out to be 8 µg/mL.
For `Cc1ccc(-c2nc(NS(=O)(=O)c3ccc(Cl)cc3)sc2C)cc1` [revertin-21], the maximal fold induction with N548 mutant cells (Rattus norvegicus, 72 h) stood at 3. Further, in the series on N548 mutant cells (setting [3]), the EC50 was determined as 4 µg/mL.
The like results for `CC(=O)N(c1ccc(Br)cc1)C1C(=O)c2ccccc2C(=O)C1N(C)C` (stereo not drawn) [revertin-24] were, in that order, 25 and 2 µg/mL.
On the same counts, the results for `CCC1CN2CCc3cc(OC)c(OC)cc3C2CC1CC1c2cc(OC)c(OC)cc2CCN1C(=O)c1ccco1` (stereo not drawn) [revertin-25] are 4 and 3 µg/mL.
On the same counts, the results for `CC12CC3CC(C)(C1)CC(NC=O)(C3)C2` [revertin-26] are 1.5 and 5 µg/mL.
Turning to `Oc1ccc2c(c1)CC1NCCc3cc(O)c(O)c-2c31` (stereo not drawn) [revertin-27], the maximal fold induction with N548 mutant cells (Rattus norvegicus, 72 h) was found to be 3. Besides, the EC50 in the series on N548 mutant cells (setting [3]) is 4 µg/mL.
On the same counts, the results for `CC1=NN(C(N)=S)C(=O)C1NNc1ccccc1C(F)(F)F` (stereo not drawn) [revertin-29] are 3 and 2 µg/mL.
On the same counts, the results for `CC(C)C1=CCC2C(=C1)CCC1C(C(=O)O)CCCC21C` (stereo not drawn) [revertin-30] are 4 and 2 µg/mL.
On the same counts, the results for `O=C(NNC(C(=O)Cc1cccs1)C(F)(F)F)c1cccc(Br)c1` (stereo not drawn) [revertin-31] are 4 and 2 µg/mL.
As to Antimycin A [reference compound], the “N548 Mut: Max, maximum rescue expressed as fold over DMSO treated N548 mutant cells” value with N548 mutant cells (0.5% IFS, 39° C., 3 d) is recorded as 3 fold. Moreover, the EC50 with N548 mutant cells (setting [4]) came out at 5000 nM.
Turning to Nonactin [reference compound], the “N548 Mut: Max, maximum rescue expressed as fold over DMSO treated N548 mutant cells” value with N548 mutant cells (0.5% IFS, 39° C., 3 d) is on record as 2.5 fold. The EC50 with N548 mutant cells (setting [4]) was 600 nM.
The like results for Rotenone [reference compound] were, in that order, 2.5 fold and 5000 nM.
